In PMC11641365, “Evaluation of In Vitro Biological Activity of Flavanone/Chromanone Derivatives: Molecular Analysis of Anticancer Mechanisms in Colorectal Cancer” (International Journal of Molecular Sciences, 2024):
Read-outs that look alike come from different tables or passages of the source.

What was measured:
[1] = system: human colon cancer cell lines: HCT 116, SW620, LoVo, Caco-2, and HT-29; assay: MTT cell viability assay, statements across the panel; format: cell-based; conditions: range over the cancer cell lines, read-out: IC50 range against colon cancer cell lines
Method: The cytotoxic activity of the 3-benzylideneflavanones, 3-benzylidenechromanones derivatives (compounds 1, 2, 3, 4, 5) and 5′-(3-methoxyphenyl)-2-phenyl-4′,5′-dihydro-4H-spiro[chromano-3,3′-pirazol]-4-one (compound 3a) was evaluated using the MTT assay (4,5-dimethylthiazol-2-yl)-2,5-diphenyltetrazoliumbromide), a colorimetric method that quantifies cell viability. […] These IC50 values were subsequently used for all experiments investigating the anticancer activity of the flavanone/chromanone derivatives in this study.
Cell viability was determined using the metabolic microplate spectrophotometric assay with Methylthiazolyl diphenyltetrazolium bromide (MTT) (Sigma-Aldrich; St. Louis, MO, USA). The MTT method belongs to metabolic tests for determining cell viability and consists of measuring the absorbance of a violet solution of formazan, a product of the reduction of a water-soluble yellow MTT by oxidoreductive enzymes (mainly mitochondrial succinate dehydrogenase) of living cells. The amount of the reaction product (water-insoluble formazan crystals) is proportional to the number of living and metabolically active cells in the sample. In the case of damaged or dead cells, formazan is formed in smaller amounts, or it is not formed.
The appropriate number of cells for a given cell line (6–8 × 10^3 cells/mL) were seeded onto colorless, sterile 96-well microplates (Nunc, Roskilde, Denmark) in the number appropriate for a given cell line. After 24 h of culture, various concentrations of the studied compounds (10^−7–10^−5 M) freshly prepared in DMSO (final concentration DMS < 0.1%) and diluted with complete culture medium were added and incubated in a CO2 incubator for 24 h. After this time, the medium was removed; the cell monolayer was washed twice with sterile PBS solution; and fresh culture medium was added to the microplate wells. After 48 h of cell culture, the MTT test was performed. A volume of 50 μL of tetrazolium salt solution (final concentration 0.05 mg/mL) was added to each microplate well. The microplate was placed for 3–4 h (depending on the cell line) in a CO2 incubator. After incubation, 100 μL of DMSO was added to the wells of the microplate to dissolve the purple formazan crystals formed in the living cell environment. The absorbance of the formazan solution, after gentle mixing, was read at a wavelength of λ = 580 nm and a reference wavelength of λ = 720 nm (Biotek Power Wave HT, Biotek Instruments, Winooski, VT, USA). The percentage of living cells was calculated by comparing the absorbance value of the tested samples with the absorbance value of the control (cells not treated with compounds). The absorbance of the control was taken as 100%. […] Moreover, cisplatin (Sigma-Aldrich, St. Louis, MO, USA) was used as a reference compound, and identical incubation conditions were used as described above.

SW620 [2] = assay: Cell cycle analysis via flow cytometry (propidium iodide); format: cell-based, human; conditions: compound at IC50, 24 h; for Increase in the G2/M phase cell fraction: vs control
Method: (§1) The most commonly used fluorescent dyes for cell cycle analysis are fluorochromes that penetrate the cell membrane into the interior of permeabilized cells and bind stoichiometrically to DNA via intercalation, e.g., DAPI, propidium iodide (PI). The analysis is performed on cells fixed in ethanol. In this work, the cell cycle analysis was performed using the method described by Darzynkiewicz and Juan.
(§2) Cells (10 × 10^3) were seeded in 35 mm dishes and cultured in the medium for 24 h to attain the logarithmic growth phase. […] Subsequently, cells were trypsinized and centrifuged for 10 min at 400× g at 4 °C. The cell suspension in 100 μL of PBS was fixed in 1 mL of 70% ethanol (−20 °C) and stored at this temperature until analysis. Immediately before analysis, the ethanol-fixed cell suspension was centrifuged at 10,000 rpm for 10 min at 4 °C. The pellet was washed with cold (4 °C) PBS to remove residual ethanol, and the cell suspension was centrifuged again under the same conditions. A volume of 300 μL of PBS containing 4 mg/mL propidium iodide (final concentration 75 μM) and 1 mg/mL RNAse A (final concentration 20 μg/mL) was added to the cell pellet and incubated for at least 30 min at 37 °C in the dark. Stained cells were analyzed using a flow cytometer (Becton Dickinson, Franklin Lakes, NJ, USA), counting 10,000 cells in each sample. Data were analyzed using FlowJo 10.10 software (FlowJo, Williamson Way Ashland, OR, USA).

LoVo [3] = assay: as above; format: cell-based, human; conditions: compound at IC50, 24 h, vs control
Method: as §1, §2

HCT 116 = assay: as above; format: cell-based, human; conditions: compound at IC50, 24 h, vs control
Method: as §1, §2

SW620 [4] = assay: Intracellular GSH level, monochlorobimane (MCB) probe; format: cell-based, human; conditions: compound at IC50, 24 h, vs control
Method: (§3) The spectrofluorimetric method with monochlorobimane (MCB; Sigma-Aldrich; St. Louis, MO, USA) was used to determine GSH. Monochlorobimane reacts with glutathione in a reaction catalyzed by cellular glutathione S-transferase. The reaction produces a fluorescent bimane-glutathione conjugate (GSH-MCB). A major advantage of MCB is its ability to penetrate the cell membrane, which is why it is used as a probe to determine the amount of GSH in living cells.
(§4) Cells were seeded in black 96-well fluorometric microplates at a density of 10 × 10^3 cells/mL. […] Following compound incubation, the medium was removed, and the cell monolayers were washed twice with HBSS (140 mM NaCl, 5 mM KCl, 0.8 mM MgCl2, 1.8 mM CaCl2, 1 mM Na2HPO4, 10 mM HEPES, and 1% glucose). A solution of MCB at a final concentration of 40 μM was added to each well and incubated in a CO2 cell culture incubator at 37 °C for 20 min. A 40 mM MCB stock solution was prepared by dissolving 9 mg of the reagent in 1 mL of absolute ethanol. Fluorescence was measured using a Perkin-Elmer LS-5B spectrofluorometer (Waltham, MA, USA) at the following excitation and fluorescence emission wavelengths: λex = 380 nm/λem = 470 nm. After incubation with MCB, the cells were lysed with 50 μL of lysis buffer (10 mM TRIS-HCl; pH 8 containing 0.1% Triton X-100). In order to normalize the number of cells in individual samples, the amount of DNA was determined by adding 50 μL of ethidium bromide (EB, final concentration 0.2 mM) to each well after measuring the MCB fluorescence and measuring the EB fluorescence at an excitation wavelength of λex = 530 nm and an emission wavelength of λem = 590 nm. The results obtained using the standard curve were converted to nM of GSH.

LoVo [5] = assay: as above; format: cell-based, human; conditions: compound at IC50, 24 h, vs control
Method: as §3, §4

Row | Structure (SMILES) | IC50 ([1]; Homo sapiens) [µM] | IC50 [1] [µM] | Change in cell cycle parameters or G2/M phase arrest (SW620 [2]) | Increase in the G2/M phase cell percentage (LoVo [3]) | Increase in the G2/M phase cell fraction (HCT 116) | Decrease in GSH levels (SW620 [4]) [%] | Decrease in GSH levels (LoVo [5]) | Increase in the G2/M phase cell fraction (SW620 [2])
1 | O=C1/C(=C/c2ccccc2)COc2ccccc21 [Compound 1] | 8 to 30 | 8 to 20 | no statistically significant changes | approximately 10% | approximately 10% | 40 | 30–35% | 
2 | COc1cccc(/C=C2/C(=O)c3ccccc3OC2c2ccccc2)c1 (stereo not shown) [Compound 3] | 8 to 30 |  |  | approximately 35% | approximately 30% | 30 | 30–35% | approximately 20%
3 | O=C1/C(=C/c2ccccc2)C(c2ccccc2)Oc2ccccc21 (stereo not shown) [Compound 5] | 8 to 30 |  |  | approximately 20% | 20% | 30 | 30–35% | ~13%
